Source: article PMC11819763, “Activity of Potassium Channel BmK-NSPK Inhibitor Regulated by Basic Amino Acid Residues: Novel Insight into the Diverse Peptide Pharmacology” (Molecules, 2025)
Positions of bridges follow the written chain, without caps; N, C: chain ends. Residues, ends and D or L forms follow the SMILES beside them.

Legend:
hKv1.3 channel = target: T1, hKv1.3 channel (Homo sapiens, UniProt P22001); experiment: Whole-cell patch clamp, hKv1.3 channel currents in HEK293T cells; assay type: cell-based; conditions: from IC50 values on hKv1.3 channel
T1 construct: expressed in transfected cells; host or cells: HEK293T cells, co-transfected with pEGFP-N1
From the text: In order to verify the differential pharmacological activities between BmK-NSPK, MeuKTX, KTX-2 and KTX-3, their recombinant peptides were produced according to our previous procedure. […] Then, MALDI-TOF-MS was further used to analyze BmK-NSPK. The determined molecular mass was […], which well corresponds to its calculated value of 3659.8 Da. The circular dichroism (CD) spectra also indicated the overall similarity to the secondary structures between BmK-NSPK, MeuKTX, KTX-2 and KTX-3 peptides. […] Subsequently, the patch clamp technique was used to characterize the pharmacological activities of BmK-NSPK, MeuKTX, KTX-2 and KTX-3 peptides according to our previously described procedure. […]
In a 5% CO2 incubator at 37 °C, HEK293T cells were cultured in DMEM medium (Gibco, Grand Island, NY, USA) supplemented with 10% fetal bovine serum and 1% penicillin/streptomycin. […] After one day of transfection, the potassium currents were recorded, and the positive cells were selected based on the presence of GFP fluorescence.
Whole-cell current measurement and data acquisition were performed using an EPC-10 patch-clamp amplifier controlled by Pulse (HEKA Elektronik, Lambrecht, Germany). The potassium currents were recorded according to the recording protocol for the Kv1 channel, as described in previously published references. […]

hKv1.1 channel = experiment: Whole-cell patch clamp, hKv1.1 channel currents; assay type: cell-based, human; conditions: 1 μM peptide, mean ± SE, n ≥ 3, SEM
From the text: (§1) The pRc/CMV-hKv1.3 was kindly provided by Professor Stephan Grissmer (University of Ulm, Ulm, Germany) and Professor Olaf Pongs (Zentrum für Molekulare Neurobiologie der Universität Hamburg, Hamburg, Germany). The cDNAs encoding hKv1.1 and hKv1.2 (from Professor Stephan Grissmer, University of Ulm, Ulm, Germany) were subcloned into the vector pIRES2-EGFP (TaKaRa Clontech, Mountain View, CA, USA). The cDNAs encoding hKv1.6 were subcloned into the vector pcDNA 3.1(+) (TaKaRa Clontech, Mountain View, CA, USA). A QuikChange Site-Directed Mutagenesis Kit (Stratagene, La Jolla, CA, USA) was used to produce the mutants based on the wild-type hKv1.3 channel plasmids. All plasmids and their mutants were verified by DNA sequencing before the expression. The three channel chimeras were, respectively, named by hKv1.3-M1 (425DPTSGFS432 → 425ERESQFP432), hKv1.3-M2 (452HPV456 → 452VPT456) and hKv1.3-M3 (425DPTSGFS432 → 425ERESQFP432, 452HPV456 → 452VPT456).
(§2) In a 5% CO2 incubator at 37 °C, HEK293T cells were cultured in DMEM medium (Gibco, Grand Island, NY, USA) supplemented with 10% fetal bovine serum and 1% penicillin/streptomycin. Potassium channel plasmids and pEGFP-N1 were co-transfected into the HEK293 cells using the ExFect Transfection Reagent (Vazyme, Nanjin, China). After one day of transfection, the potassium currents were recorded, and the positive cells were selected based on the presence of GFP fluorescence.
(§3) Whole-cell current measurement and data acquisition were performed using an EPC-10 patch-clamp amplifier controlled by Pulse (HEKA Elektronik, Lambrecht, Germany). The potassium currents were recorded according to the recording protocol for the Kv1 channel, as described in previously published references. Peptides were dissolved in an external solution containing 0.01% BSA for electrophysiological experiments. […]

hKv1.2 channel = experiment: Whole-cell patch clamp, hKv1.2 channel currents; assay type: cell-based, human; conditions: 1 μM peptide, mean ± SE, n ≥ 3, SEM
From the text: as §1, §2, §3

hKv1.6 channel = experiment: Whole-cell patch clamp, hKv1.6 channel currents; assay type: cell-based, human; conditions: 1 μM peptide, mean ± SE, n ≥ 3, SEM
From the text: as §1, §2, §3

[1] = system: hKv1.3-M1 channel (turret domain of hKv1.3 substituted by hKv1.2 region); experiment: Whole-cell patch clamp, chimeric hKv1.3-M1 channel currents; assay type: cell-based, human; conditions: mean ± SE, n ≥ 3, SEM
Description: In order to further investigate the effect of basic residue number on BmK-NSPK pharmacology, the activities of BmK-NSPK analogs were also tested on the Kv1.3 channel chimeras in this work. […] Based on the weak inhibition potencies of BmK-NSPK-7K and BmK-NSPK-8K towards hKv1.2 channel (Figure 5C,D), the work first constructed the chimeric hKv1.3-M1, in which the turret domain of hKv1.3 channel was substituted by the equivalent region of hKv1.2 channel (Figure 6A). Pharmacological experiments with 100 nM and 1 μM MeuKTX were able to inhibit 45.7 ± 7.9% and 82.8 ± 6.1% of hKv1.3-M1 channel currents, respectively (Figure 6B).
as §1, §2
(§4) Whole-cell current measurement and data acquisition were performed using an EPC-10 patch-clamp amplifier controlled by Pulse (HEKA Elektronik, Lambrecht, Germany). The potassium currents were recorded according to the recording protocol for the Kv1 channel, as described in previously published references. Peptides were dissolved in an external solution containing 0.01% BSA for electrophysiological experiments. The patch pipette solution contained 140 mM KF (Sigma, St. Louis, MC, USA), 2 mM MgCl2 (Sinopharm Chemical Reagent Co., Ltd., Shanghai, China), 1 mM EGTA (Sigma) and 10 mM HEPES (neoFroxx, Einhausen, Hessen, Germany) (pH adjusted to 7.4 with KOH (Sinopharm Chemical Reagent Co., Ltd., Shanghai, China)), and the bath solution contained 4.5 mM KCl, 160 Mm NaCl (Sinopharm Chemical Reagent Co., Ltd., Shanghai, China), 5 mM HEPES, 2 mM CaCl2 (Sinopharm Chemical Reagent Co., Ltd., Shanghai, China) and 1 mM MgCl2 (pH adjusted to 7.4 with NaOH (Sinopharm Chemical Reagent Co., Ltd., Shanghai, China)).
(§5) Graphing and data analysis were conducted using GraphPad Prism software (Version 8.0, San Diego, CA, USA), ClampFit software (version 10.2, Molecular Devices, Sunnyvale, CA, USA), and SigmaPlot software (version 12.0, IBM SPSS, Chicago, IL, USA). The dose–response relationship between the channel current and peptide inhibition was modeled by the modified Hill equation: Ipeptide/Icontrol = 1/{1 + [peptide]/IC50}, where Ipeptide represents the potassium current under peptide inhibition, Icontrol represents the peak current, IC50 is the half-maximal inhibition concentration and [peptide] represents the peptide concentration. The IC50 was obtained by fitting the Hill equation. Results are presented as mean ± SE, with each sample tested on at least three cells (n ≥ 3).

[2] = system: hKv1.3-M2 channel (filter region of hKv1.3 substituted by hKv1.2 region); experiment: Whole-cell patch clamp, chimeric hKv1.3-M2 channel currents; assay type: cell-based, human; conditions: mean ± SE, n ≥ 3, SEM
Description: Apart from the chimeric hKv1.3-M1, this work further constructed the chimeric hKv1.3-M2 channel, in which the filter region of hKv1.3 channel was substituted by the equivalent region of hKv1.2 channel (Figure 6A). Pharmacological experiments 100 nM and 1 μM MeuKTX were able to inhibit 78.3 ± 4.9% and 95.9 ± 1.3% of hKv1.3-M2 channel currents, respectively, which indicated the minor effect of channel filter region on MeuKTX binding (Figure 6B). However, more significant effects were also observed for BmK-NSPK analogs with different numbers of basic residues.
as §1, §2, §4, §5

[3] = system: hKv1.3-M3 channel (turret, pore helix and filter region of hKv1.3 replaced by hKv1.2 regions); experiment: Whole-cell patch clamp, chimeric hKv1.3-M3 channel currents; assay type: cell-based, human; conditions: mean ± SE, n ≥ 3, SEM
From the text: as §1, §2, §4, §5

[4] = target: human Kv1.3 potassium channel (human) (UniProt P22001)
Chain of human Kv1.3 potassium channel (human) (P22001 whole entry): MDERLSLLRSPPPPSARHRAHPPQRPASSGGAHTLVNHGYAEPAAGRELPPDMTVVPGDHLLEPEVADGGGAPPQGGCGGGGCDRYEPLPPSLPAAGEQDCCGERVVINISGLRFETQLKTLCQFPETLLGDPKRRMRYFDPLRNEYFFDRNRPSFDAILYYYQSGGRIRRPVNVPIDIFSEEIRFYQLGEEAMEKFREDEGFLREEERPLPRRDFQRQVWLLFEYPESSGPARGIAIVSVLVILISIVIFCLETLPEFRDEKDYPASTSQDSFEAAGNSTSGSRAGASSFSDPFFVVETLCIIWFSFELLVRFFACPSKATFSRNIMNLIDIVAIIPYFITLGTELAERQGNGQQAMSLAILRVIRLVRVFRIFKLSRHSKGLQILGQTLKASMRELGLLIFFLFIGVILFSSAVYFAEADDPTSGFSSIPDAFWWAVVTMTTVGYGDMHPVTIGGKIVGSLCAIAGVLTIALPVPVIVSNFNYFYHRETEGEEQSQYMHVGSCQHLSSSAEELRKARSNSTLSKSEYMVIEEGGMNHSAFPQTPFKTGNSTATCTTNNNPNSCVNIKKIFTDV

T1 sequence (P22001 whole entry): as above

| Compound | fold decreased activity on hKv1.3 compared with BmK-NSPK-7K (hKv1.3 channel) | inhibition of hKv1.1 channel currents (hKv1.1 channel) | inhibition of hKv1.2 channel currents (hKv1.2 channel) | inhibition of hKv1.6 channel currents (hKv1.6 channel) | inhibition of hKv1.3-M1 channel currents ([1]; 100 nM peptide) | inhibition of hKv1.3-M1 channel currents ([1]; 1 μM peptide) | inhibition of hKv1.3-M2 channel currents ([2]; 100 nM peptide) | inhibition of hKv1.3-M2 channel currents ([2]; 1 μM peptide) | inhibition of hKv1.3-M3 channel currents ([3]; 100 nM peptide) | inhibition of hKv1.3-M3 channel currents ([3]; 1 μM peptide) | inhibition of hKv1.3 channel currents by 1 μM peptide (whole-cell patch clamp, HEK293T) [4] |
| --- | --- | --- | --- | --- | --- | --- | --- | --- | --- | --- | --- |
| CSCC[C@@H]1NC(=O)CNC(=O)[C@H](C)NC(=O)[C@H](CC(=O)O)NC(=O)[C@H](CCCCN)NC(=O)[C@@H]2CSSC[C@@H](C(=O)N[C@H](C(=O)N3CCC[C@H]3C(=O)N[C@@H](CCCCN)C(=O)NCC(=O)O)[C@@H](C)O)NC(=O)[C@H](CC(=O)O)NC(=O)[C@@H]3CSSC[C@H](NC(=O)[C@H](CCC(N)=O)NC(=O)CNC(=O)[C@H](CO)NC(=O)[C@H](Cc4c[nH]cn4)NC(=O)[C@H](CCCCN)NC(=O)[C@@H](NC(=O)[C@H](CCCCN)NC(=O)[C@@H](NC(=O)[C@H](CC(N)=O)NC(=O)[C@H](CCCCN)NC(=O)CNC(=O)[C@@H](N)C(C)C)C(C)C)CSSC[C@H](NC(=O)[C@H](CCCCN)NC(=O)CNC(=O)[C@H](Cc4ccccc4)NC(=O)[C@H](CCCNC(=N)N)NC1=O)C(=O)N[C@@H](CCSC)C(=O)N[C@@H](CC(N)=O)C(=O)NCC(=O)N[C@@H](CCCCN)C(=O)N3)C(=O)N[C@@H](CC(C)C)C(=O)N[C@@H](CCCCN)C(=O)N1CCC[C@H]1C(=O)N2 [BmK-NSPK-8K] (H-VGKNVKCKHSGQCLKPCKDAGMRFGKCMNGKCDCTPKG-OH; disulfide 7-27, 13-32, 17-34 (inferred); N-terminus and C-terminus assumed) | ~ 10 fold | 84.3 ± 1.8% | 12.3 ± 1.8% | 34.1 ± 4.8% | 4.5 ± 1.2% | 27.7 ± 4.0% | 8.8 ± 2.6% | 51.3 ± 1.5% | 2.7 ± 0.92% | 5.1± 1.4% | – |
| BmK-NSPK-I18K/I26K/K28M (peptide) | – | – | – | – | – | – | – | – | – | – | 26.5% |
